The source of these data is PubChem BioAssay (NCI).

Molecules are shown by their SMILES. “And” between values parts separate entries of the source, which are not always exact repeats. Equal entries are not always repeated.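 These data come from cells grown in 96-well plates and exposed to compound for 48 hours at five concentrations. Abbreviation: GI50, concentration required for 50% inhibition of growth. The concentration for full growth arrest is given as TGI.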 Where only a bound is given, the exact number is not on record here.

Assay in all cases: inhibition of tumour cell growth, NCI panel, 48 h
Assay [1] has as its system MDA-MB-435.
Assay [2] concerns DU-145 prostate.
Assay [3] relates to CCRF-CEM leukemia.
Assay [4] has as its system NCI-H23 lung.
The test system of assay [5] is ACHN renal.
The subject of assay [6] is OVCAR-5 ovarian.
In assay [7] the test system is HL-60(TB) leukemia.
The test system of assay [8] is EKVX NSCLC.
Assay [9] relates to OVCAR-4 ovarian.
For assay [10], the system named is A498 renal.

Consider `COC(=O)C1=C(O)C(C(=O)OC)C2CC(=O)CC1C2(C)C` (centres undefined), for which the TGI in [1], in [2], in assay [3], in assay [4], in [5] and in [6] was greater than 100 µM throughout. Moreover, the TGI in assay [7], in assay [8], in assay [9] and in assay [10] was greater than 100 µM in each case.

Take `Cc1ccc2cnc(N)c(C#Cc3cc(C(=O)Nc4ccc(CN5CCN(C)CC5)c(C(F)(F)F)c4)cnc3C)c2c1`: the GI50 in assay [1] was 0.262 µM; in assay [2], 0.531 µM; in assay [3] it was 0.917 µM; in [4], 0.727 µM; in assay [5], 0.449 µM; in [6], 0.688 µM. In addition, the GI50 in [7] was 1.73 µM; in assay [8] it was 0.679 µM; in assay [9], 0.436 µM; in [10] it was 0.837 µM. Also, the TGI in assay [1] is 1.01 µM; in [2], 1.14 µM; in [3], 2.85 µM; in assay [4], 1.82 µM; in [5], 1.06 µM; in [6], 1.49 µM. The TGI in assay [7] came to 6.58 µM; in [8] it was 1.53 µM; in [9], 8.36 µM; in assay [10], 1.57 µM.

Take `COc1ccc2c(c1)C(=O)/C(=C/c1cccc(OCC(=O)c3ccccc3)c1)CC2`: the GI50 in assay [1] was 2.09 µM; in assay [2], 32.6 µM; in assay [3], 2.48 µM; in assay [4] it was 18.9 µM; in [5], 31.8 µM; in assay [6], greater than 100 µM. The GI50 in assay [7] is 2.18 µM; in assay [8], 13.9 µM; in assay [9], 12.5 µM; in assay [10], 17.3 µM. Besides, the TGI in assay [1] is 10.5 µM; in assay [2] it was greater than 100 µM; in assay [3], 7.67 µM; in assay [4], greater than 100 µM; in assay [5], greater than 100 µM; in assay [6], greater than 100 µM. The TGI in assay [7] is 5.16 µM; in [8], greater than 100 µM; in [9] it was greater than 100 µM; in assay [10], 80.8 µM.

`N=C1C(O)C2(I)c3ccccc3N3C(=N)C(O)C4c5ccccc5N1C4C32` (centres undefined): the TGI is 37.9 µM in [1]; greater than 100 µM in [2]; 18.6 µM in assay [3]; greater than 100 µM in [4]; greater than 100 µM in assay [5]; greater than 100 µM in [6]. Further, the TGI in assay [7] is 79.4 µM; in [8], greater than 100 µM; in assay [9], 30.1 µM; in [10], greater than 100 µM.

For the compound `Cn1ncc(-c2ccc3c(=O)[nH]nc(CN)c3c2)c1-c1c(F)c(Cl)cc(OC2CC2)c1C#N`, the GI50 in assay [1] is 11.9 µM and 10.7 µM; in assay [2], 16.9 µM and 14.4 µM; in assay [3] it was 22.3 µM and 33.4 µM; in [4] it was 15.3 µM and 14.3 µM; in [5], 15.8 µM and 15.3 µM; in assay [6], 20.4 µM and 16.8 µM. Moreover, the GI50 is 20.6 µM and 23.1 µM in [7]; 14.9 µM and 14 µM in assay [8]; 14.5 µM and 12.6 µM in assay [9]; 16 µM and 14.3 µM in [10]. In addition, the TGI in [1] was 24.7 µM and 22.9 µM; in assay [2], 32.2 µM and 28.1 µM; in assay [3] it was greater than 100 µM; in assay [4] it was 32 µM and 29.6 µM; in assay [5] it was 30.5 µM and 28.9 µM; in assay [6], 77 µM and 44.7 µM. In addition, the TGI was greater than 100 µM in [7]; 30.5 µM and 29.6 µM in assay [8]; 29.1 µM and 26.2 µM in [9]; 29.8 µM and 27.5 µM in assay [10].

With `O=S(=O)(Nc1ccc(Br)cc1)c1ccc(-c2cnc(C3CC3)o2)cc1`, the GI50 in [1] is 0.239 µM; in assay [2], 3.8 µM; in assay [3], 2.14 µM; in [4], 2.99 µM; in assay [5], 4.9 µM; in assay [6] it was 4.55 µM. The GI50 in [7] was 1.47 µM; in assay [8], 3.39 µM; in [9] it was 3.8 µM; in assay [10], 0.31 µM. Also, the TGI turned out to be 0.646 µM in assay [1]; 17.4 µM in assay [2]; 16.2 µM in assay [3]; 15.1 µM in [4]; 17.5 µM in assay [5]; 17.1 µM in [6]. The TGI in assay [7] was determined as 6.41 µM; in assay [8], 17.5 µM; in assay [9] it was 18 µM; in [10], 2.63 µM.

As for `CCc1c2c(nc3ccc(OCc4ccc(B(O)O)cc4)cc13)-c1cc3c(c(=O)n1C2)COC(=O)[C@]3(O)CC`, the GI50 in assay [1] is 0.076 µM; in assay [2], less than 0.0158 µM; in assay [3], less than 0.01 µM; in assay [4], less than 0.01 µM; in [5], less than 0.0179 µM; in [6], 0.253 µM. In addition, the GI50 in assay [7] is 0.0353 µM; in assay [8] it was 0.614 µM; in assay [9], 0.399 µM; in assay [10], 0.0128 µM. Besides, the TGI in assay [1] was 3.5 µM; in [2], 6.05 µM; in assay [3] it was greater than 100 µM; in assay [4], 0.304 µM; in assay [5], 0.589 µM; in assay [7] it was greater than 100 µM. Also, the TGI in assay [8] is greater than 64 µM; in [9], 29.7 µM; in [10] it was 0.21 µM.

Take `c1ccc(-c2nc(-c3ccccn3)nc(-c3ccccn3)n2)nc1`: the GI50 was 41.3 µM in assay [1]; 48.9 µM in assay [2]; 14.4 µM in [3]; 54.9 µM in [4]; 22.1 µM in [5]; greater than 100 µM in assay [6]. The GI50 in assay [7] was 38.2 µM; in assay [8], 17 µM; in assay [9], 18.6 µM; in [10] it was 86.9 µM. The TGI in assay [1], in assay [2], in assay [3], in assay [4], in [5] and in assay [6] was greater than 100 µM each time. Further, the TGI in assay [7], in assay [8], in [9] and in [10] was greater than 100 µM each time.

As to `Oc1cc(Cc2ccccc2)c(Cc2ccccc2)cc1O`, the TGI in [1], in assay [2], in assay [3], in assay [4], in [5] and in [6] was greater than 10 µM in each case. Further, the TGI in assay [7], in [8], in assay [9] and in [10] was greater than 10 µM each time.

As to `O=C(NCC1CC1)c1ccc(-c2cccc(C(=O)NC3CC3)c2)cc1`, the GI50 in assay [1], in assay [2], in assay [3], in assay [4], in assay [5] and in [6] was greater than 25 µM in each case. Also, the GI50 in [7] was greater than 25 µM; in assay [8], greater than 25 µM; in [9] it was greater than 25 µM; in [10] it was greater than 15.8 µM. For the same compound, the TGI in assay [1], in [2], in assay [3], in assay [4], in assay [5] and in [6] was greater than 25 µM in each case. The TGI in assay [7], in assay [8], in assay [9] and in assay [10] was greater than 25 µM in each case.

As to `CC(C)=CCN1c2ccccc2NC(=O)CC1C` (centres undefined), the TGI in assay [1], in [2], in [3], in [4], in assay [5] and in assay [6] was greater than 100 µM in each case. Besides, the TGI in assay [7] was greater than 100 µM; in [8], greater than 100 µM; in assay [9], 73.8 µM; in assay [10] it was greater than 100 µM.

As for `CC12CCC(CC(=O)/C1=C(/Br)I)C2(C)C` (centres undefined), the TGI amounted to 28.6 µM in assay [1]; 34.8 µM in assay [2]; 30.5 µM in assay [3]; 27.9 µM in [4]; 32.1 µM in assay [5]; 8.76 µM in assay [6]. The TGI in [7] worked out at 12 µM; in assay [8] it was 36.6 µM; in [9], 29.1 µM; in assay [10], 33.7 µM.

With `COc1ccc(C2=Nn3c(nnc3-c3cc(Cl)cc(Cl)c3Cl)SC2)cc1`, the GI50 in assay [1] is 0.163 µM; in assay [2] it was 0.355 µM; in assay [3] it was 0.519 µM; in [4], 0.701 µM; in [5] it was 0.859 µM; in assay [6], 1.42 µM. Moreover, the GI50 in assay [7] was 0.461 µM; in assay [8], 0.622 µM; in [9], 0.805 µM; in assay [10] it was 0.583 µM. Further, the TGI in assay [1] was 0.588 µM; in assay [2], 4.42 µM; in assay [3] it was greater than 100 µM; in assay [4] it was greater than 100 µM; in assay [5], greater than 100 µM; in assay [6] it was greater than 100 µM. Moreover, the TGI was 2.03 µM in assay [7], greater than 46.1 µM in assay [8], greater than 100 µM in [9] and greater than 100 µM in assay [10].
